From US20220289724A1, “KIF18A INHIBITORS” (AMGEN INC., priority 2019, published 2022)

Biological target: T1, Recombinant human KIF18A (1-467 His-tagged) protein (Homo sapiens, UniProt Q8NI77)
T1 construct: Recombinant human KIF18A (1-467 His-tagged) protein; His; made in house
Test: KIF18A Enzyme Assay: microtubule-stimulated ATPase activity assay (ADP-Glo)
Type: biochemical
Settings: KIF18A protein 30 nM, 30 μg/mL pig microtubules, ATP at Km 75 μM, ADP-Glo luminescence, RT

T1 sequence (Q8NI77 1-467): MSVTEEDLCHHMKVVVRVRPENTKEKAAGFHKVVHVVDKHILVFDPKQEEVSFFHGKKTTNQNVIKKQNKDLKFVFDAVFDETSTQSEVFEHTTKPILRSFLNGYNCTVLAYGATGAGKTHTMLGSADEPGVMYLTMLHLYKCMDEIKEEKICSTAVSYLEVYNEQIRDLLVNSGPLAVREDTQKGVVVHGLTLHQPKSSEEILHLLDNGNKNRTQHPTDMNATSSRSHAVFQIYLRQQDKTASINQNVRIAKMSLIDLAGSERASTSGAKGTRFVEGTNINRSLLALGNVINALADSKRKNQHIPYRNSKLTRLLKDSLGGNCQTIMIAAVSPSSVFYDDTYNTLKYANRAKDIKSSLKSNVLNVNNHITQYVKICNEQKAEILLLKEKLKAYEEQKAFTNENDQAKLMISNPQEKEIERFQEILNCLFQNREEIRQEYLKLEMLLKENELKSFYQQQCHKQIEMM
T1 sequence (P02550 whole entry partner): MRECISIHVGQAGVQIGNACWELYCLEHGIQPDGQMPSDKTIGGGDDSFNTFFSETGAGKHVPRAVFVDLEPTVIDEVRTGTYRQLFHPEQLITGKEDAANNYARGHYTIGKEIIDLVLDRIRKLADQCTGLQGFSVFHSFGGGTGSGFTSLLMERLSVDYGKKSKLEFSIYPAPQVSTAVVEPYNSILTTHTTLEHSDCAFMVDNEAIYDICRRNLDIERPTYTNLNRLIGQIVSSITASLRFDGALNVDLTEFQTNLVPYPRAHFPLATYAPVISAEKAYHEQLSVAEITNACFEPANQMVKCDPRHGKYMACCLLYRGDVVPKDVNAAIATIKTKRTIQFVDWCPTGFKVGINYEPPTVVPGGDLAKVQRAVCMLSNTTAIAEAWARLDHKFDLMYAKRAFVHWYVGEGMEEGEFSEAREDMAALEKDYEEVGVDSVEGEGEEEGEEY
T1 sequence (P02554 whole entry partner): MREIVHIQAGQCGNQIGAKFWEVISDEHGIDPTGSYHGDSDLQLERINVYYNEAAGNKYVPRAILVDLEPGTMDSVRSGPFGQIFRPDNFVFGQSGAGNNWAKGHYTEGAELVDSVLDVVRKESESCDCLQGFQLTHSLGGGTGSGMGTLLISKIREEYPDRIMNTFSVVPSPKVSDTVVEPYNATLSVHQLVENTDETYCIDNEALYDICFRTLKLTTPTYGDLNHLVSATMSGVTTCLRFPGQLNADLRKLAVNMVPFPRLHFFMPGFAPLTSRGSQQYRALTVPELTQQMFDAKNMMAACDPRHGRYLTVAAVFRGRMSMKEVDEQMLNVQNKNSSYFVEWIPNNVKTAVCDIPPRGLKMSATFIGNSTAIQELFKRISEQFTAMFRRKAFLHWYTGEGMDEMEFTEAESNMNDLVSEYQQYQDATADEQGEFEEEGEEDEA

Structure (SMILES) | IC50
CC(C)(C)NS(=O)(=O)c1cccc(NC(=O)c2ccc(C(=O)NC(C)(C)CO)cc2N2CCC3(CC2)CC3)c1 [Example 111-3, N^1-(3-(N-(tert-butyl)sulfamoyl)phenyl)-N^4-(1-hydroxy-2-methylpropan-2-yl)-2-(6-azaspiro[2.5]octan-6-yl)terephthalamide] | 272 nM
O=C(NCCO)c1ccc(C(=O)Nc2cccc(S(=O)(=O)C3CCCC3)c2)c(N2CCC3(CC2)CC3)c1 [Example 111-4, N^1-(3-(cyclopentylsulfonyl)phenyl)-N^4-(2-hydroxyethyl)-2-(6-azaspiro[2.5]octan-6-yl)terephthalamide] | 139 nM
CC(C)(C)[S@@](=N)(=O)c1cccc(NC(=O)c2ccc(NS(=O)(=O)CCO)cc2N2CCC3(CC2)CC3)c1 [Example 114-1, (R)-4-((2-hydroxyethyl)sulfonamido)-N-(3-(2-methylpropan-2-ylsulfonimidoyl)phenyl)-2-(6-azaspiro[2.5]octan-6-yl)benzamide] | 194 nM
O=C(Nc1ccc(NS(=O)(=O)CCO)cc1N1CCC2(CC1)CC2)c1cccc(N2CCCCC2)c1 [Example 115, N-(4-((2-Hydroxyethyl)sulfonamido)-2-(6-azaspiro[2.5]octan-6-yl)phenyl)-3-(piperidin-1-yl)benzamide] | 26 nM

Other lines, results leading:

IC50 | Structure (SMILES)
429 nM | C[S@@](=N)(=O)c1cccc(NC(=O)c2ccc(NS(=O)(=O)CCO)cc2N2CCC3(CC2)CC3)c1 [Example 113-1, (R)-4-((2-hydroxyethyl)sulfonamido)-N-(3-(S-methylsulfonimidoyl)phenyl)-2-(6-azaspiro[2.5]octan-6-yl)benzamide]
488 nM | C[S@](=N)(=O)c1cccc(NC(=O)c2ccc(NS(=O)(=O)CCO)cc2N2CCC3(CC2)CC3)c1 [Example 113-2, (S)-4-((2-hydroxyethyl)sulfonamido)-N-(3-(S-methylsulfonimidoyl)phenyl)-2-(6-azaspiro[2.5]octan-6-yl)benzamide]
323 nM | CC(C)(C)[S@](=N)(=O)c1cccc(NC(=O)c2ccc(NS(=O)(=O)CCO)cc2N2CCC3(CC2)CC3)c1 [Example 114-2, (S)-4-((2-hydroxyethyl)sulfonamido)-N-(3-(2-methylpropan-2-ylsulfonimidoyl)phenyl)-2-(6-azaspiro[2.5]octan-6-yl)benzamide]
